Source: the supplement of paper PMC10307832

How the values were obtained:
Assay in all cases: relative viability (nuclei count vs DMSO), 5 days (fraction); higher = more cells survive
Everolimus + Lapatinib = compound: CO[C@H]1C[C@@H]2CC[C@@H](C)[C@@](O)(O2)C(=O)C(=O)N2CCCC[C@H]2C(=O)O[C@H]([C@H](C)C[C@@H]2CC[C@@H](OCCO)[C@H](OC)C2)CC(=O)[C@H](C)/C=C(\C)[C@@H](O)[C@@H](OC)C(=O)[C@H](C)C[C@H](C)/C=C/C=C/C=C/1C [Everolimus] + CS(=O)(=O)CCNCc1ccc(-c2ccc3ncnc(Nc4ccc(OCc5cccc(F)c5)c(Cl)c4)c3c2)o1 [Lapatinib] (partner 2 µM)
Method in brief: (§1)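 Nuclei were stained with Hoechst during a one-step fixation (final 0.05% Triton X-100, 1% formaldehyde, 1 ug/ml Hoechst) carried out 5 days after dosing, then counted on 4× images. The cells, lung cancer lines in 1536-well plates, had been dosed by pin tool the day after seeding with one drug alone or a fixed anchor-drug dose plus five library-drug doses (not always all listed) in √10 steps. Relative viability is the nuclei count in treated wells divided by that in vehicle wells, and each value is the median of duplicate plates.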

Everolimus + Crizotinib = compound: CO[C@H]1C[C@@H]2CC[C@@H](C)[C@@](O)(O2)C(=O)C(=O)N2CCCC[C@H]2C(=O)O[C@H]([C@H](C)C[C@@H]2CC[C@@H](OCCO)[C@H](OC)C2)CC(=O)[C@H](C)/C=C(\C)[C@@H](O)[C@@H](OC)C(=O)[C@H](C)C[C@H](C)/C=C/C=C/C=C/1C [Everolimus] + C[C@@H](Oc1cc(-c2cnn(C3CCNCC3)c2)cnc1N)c1c(Cl)ccc(F)c1Cl [Crizotinib] (partner 1 µM)
Method in brief: as §1

Everolimus + Dasatinib = compound: CO[C@H]1C[C@@H]2CC[C@@H](C)[C@@](O)(O2)C(=O)C(=O)N2CCCC[C@H]2C(=O)O[C@H]([C@H](C)C[C@@H]2CC[C@@H](OCCO)[C@H](OC)C2)CC(=O)[C@H](C)/C=C(\C)[C@@H](O)[C@@H](OC)C(=O)[C@H](C)C[C@H](C)/C=C/C=C/C=C/1C [Everolimus] + Cc1nc(Nc2ncc(C(=O)Nc3c(C)cccc3Cl)s2)cc(N2CCN(CCO)CC2)n1 [Dasatinib] (partner 0.075 µM)
Method in brief: as §1

Everolimus + Pemetrexed = compound: CO[C@H]1C[C@@H]2CC[C@@H](C)[C@@](O)(O2)C(=O)C(=O)N2CCCC[C@H]2C(=O)O[C@H]([C@H](C)C[C@@H]2CC[C@@H](OCCO)[C@H](OC)C2)CC(=O)[C@H](C)/C=C(\C)[C@@H](O)[C@@H](OC)C(=O)[C@H](C)C[C@H](C)/C=C/C=C/C=C/1C [Everolimus] + Nc1nc2[nH]cc(CCc3ccc(C(=O)N[C@@H](CCC(=O)O)C(=O)O)cc3)c2c(=O)[nH]1 [Pemetrexed] (partner 0.2 µM)
Method in brief: as §1

Cell Line | relative viability (Everolimus + Lapatinib; first compound 0.01 µM) | relative viability (Everolimus + Lapatinib; first compound 0.03162 µM) | relative viability (Everolimus + Lapatinib; first compound 0.1 µM) | relative viability (Everolimus + Lapatinib; first compound 0.3162 µM) | relative viability (Everolimus + Lapatinib; first compound 1 µM) | relative viability (Everolimus + Crizotinib; first compound 0.01 µM) | relative viability (Everolimus + Crizotinib; first compound 0.03162 µM) | relative viability (Everolimus + Crizotinib; first compound 0.1 µM) | relative viability (Everolimus + Crizotinib; first compound 0.3162 µM) | relative viability (Everolimus + Crizotinib; first compound 1 µM) | relative viability (Everolimus + Dasatinib; first compound 0.01 µM) | relative viability (Everolimus + Dasatinib; first compound 0.03162 µM) | relative viability (Everolimus + Dasatinib; first compound 0.1 µM) | relative viability (Everolimus + Dasatinib; first compound 0.3162 µM) | relative viability (Everolimus + Dasatinib; first compound 1 µM) | relative viability (Everolimus + Pemetrexed; first compound 0.01 µM) | relative viability (Everolimus + Pemetrexed; first compound 0.03162 µM) | relative viability (Everolimus + Pemetrexed; first compound 0.1 µM) | relative viability (Everolimus + Pemetrexed; first compound 0.3162 µM) | relative viability (Everolimus + Pemetrexed; first compound 1 µM)
LCLC-97TM1 | 0.611 | 0.869 | 0.759 | 0.817 | 0.852 | 0.406 | 0.28 | 0.485 | 0.291 | 0.216 | 0.929 | 0.851 | 0.932 | 0.836 | 0.917 | 0.165 | 0.195 | 0.196 | 0.18 | 0.211
HARA | 0.546 | 0.468 | 0.541 | 0.714 | 0.526 | 1 | 1.12 | 0.928 | 0.986 | 0.952 | 0.199 | 0.244 | – | 0.209 | 0.289 | 0.294 | 0.245 | 0.26 | 0.238 | 0.202
HCC-78 | 0.633 | 1.28 | 0.521 | 0.36 | 0.534 | 0.315 | 0.261 | 0.265 | 0.259 | 0.298 | 0.328 | 0.291 | 0.248 | 0.263 | 0.343 | 0.902 | 0.929 | 0.873 | 0.914 | 0.93
NCI-H1666 | 0.459 | 0.445 | 0.335 | 0.45 | 0.475 | 0.878 | 0.776 | 0.629 | 0.877 | 0.654 | 0.826 | 0.722 | 0.795 | 0.78 | 0.813 | 0.884 | 0.859 | 0.93 | 0.885 | 0.825
NCI-H727 | 0.435 | 0.543 | 0.402 | 0.527 | 0.561 | 0.47 | 0.443 | 0.553 | 0.49 | 0.496 | 0.242 | 0.317 | – | 0.445 | 0.276 | – | – | – | – | –
NCI-H1648 | – | – | – | – | – | – | – | – | – | – | – | – | – | – | – | 0.544 | 0.538 | 0.659 | 0.629 | 0.742
NCI-H1703 | 0.569 | 0.481 | 0.548 | 0.489 | 0.847 | 0.344 | 0.316 | 0.276 | 0.395 | 0.454 | – | – | – | – | – | – | – | – | – | –
NCI-H441 | – | – | – | – | – | 0.881 | 0.65 | 0.606 | 0.766 | 0.723 | 0.55 | 0.501 | 0.431 | 0.504 | 0.47 | 0.275 | 0.276 | 0.269 | 0.262 | 0.286
EBC-1 | 0.23 | 0.218 | 0.208 | 0.184 | 0.25 | 0.188 | 0.17 | 0.152 | 0.206 | 0.185 | – | – | – | – | – | – | – | – | – | –
HCC-44 | 1.01 | 1.11 | 1.12 | 1.01 | 0.938 | 0.912 | 0.935 | 0.774 | 0.86 | 0.677 | – | – | – | – | – | 0.769 | 0.802 | 0.675 | 0.705 | 0.727
